Data set [1] is described as follows: Cytotoxicity against human MT4 cells assessed as reduction in cell viability incubated for 5 days by MTT assay. Type of data set: cell-based. The following applies: human, MT4 cells; time 5 day.
The nature of data set [2]: Resistance fold, ratio of EC50 for HIV1 harboring reverse transcriptase K103N mutant […] to EC50 for wild type HIV1 […]. The data set is classed as functional.
Data set [3] relates to Human immunodeficiency virus 1. The experiment in a line: Antiviral activity against HIV1 harboring reverse transcriptase K103N mutant infected in human MT4 cells assessed as protection against virus-induced cytopathic effect incubated for 5 days by MTT assay. The data set is classed as functional, organism-based. The following applies: Human immunodeficiency virus 1, MT4, 120 h. On the technique in general: Protection from cytopathic effect is a common read-out in antiviral testing.

The test system of data set [4] is Human immunodeficiency virus 1. The experiment in a line: Antiviral activity against HIV1 harboring reverse transcriptase E138K mutant infected in human MT4 cells assessed as protection against virus-induced cytopathic effect incubated for 5 days by MTT assay. The following applies: Human immunodeficiency virus 1, MT4, 120 h. Type of data set: functional, organism-based.

In data set [5] the test system is Human immunodeficiency virus 1. The experiment in a line: Antiviral activity against HIV1 harboring reverse transcriptase F227L/V106A mutant infected in human MT4 cells assessed as protection against virus-induced cytopathic effect incubated for 5 days by MTT assay. Type of data set: functional, organism-based. The following applies: Human immunodeficiency virus 1, MT4, 120 h.

Data set [6] in a line: Resistance fold, ratio of EC50 for HIV1 harboring reverse transcriptase L100I mutant […] to EC50 for wild type HIV1 […]. The data set is classed as functional.
Data set [7] in a line: Selectivity index, ratio of CC50 for cytotoxicity against human MT4 cells to EC50 of Anti-HIV activity against HIV-1 IIIB infected in human MT4. The data set is classed as toxicity, cell-based. To be noted: read-out: Selectivity Index.
The subject of data set [8] is Human immunodeficiency virus 1. The data set is described as follows: Anti-HIV activity against HIV-1 IIIB infected in human MT4 cells assessed as reduction in virus-induced cytopathic effect incubated for 5 days by MTT assay. The data set is classed as functional, organism-based. To be noted: Human immunodeficiency virus 1, IIIB, MT4, 120 h.
Data set [9] relates to Human immunodeficiency virus 1. The data set is described as follows: Antiviral activity against HIV1 harboring reverse transcriptase Y181C mutant infected in human MT4 cells assessed as protection against virus-induced cytopathic effect incubated for 5 days by MTT assay. Type of data set: functional, organism-based. To be noted: Human immunodeficiency virus 1, MT4, 120 h.

Data set [10] in a line: Resistance fold, ratio of EC50 for HIV1 harboring reverse transcriptase E138K mutant […] to EC50 for wild type HIV1 […]. Type of data set: functional.
Data set [11] is described as follows: Resistance fold, ratio of EC50 for HIV1 harboring reverse transcriptase Y188L mutant […] to EC50 for wild type HIV1 […]. The data set is classed as functional.
The test system of data set [12] is Human immunodeficiency virus 1. The experiment in a line: Antiviral activity against HIV1 harboring reverse transcriptase K103N/Y181C double mutant infected in human MT4 cells assessed as protection against virus-induced cytopathic effect incubated for 5 days by MTT assay. Type of data set: functional, organism-based. To be noted: Human immunodeficiency virus 1, MT4, 120 h.

A short description of data set [13]: Resistance fold, ratio of EC50 for HIV1 harboring reverse transcriptase F227L/V106A double mutant […] to EC50 for wild type HIV1 […]. Type of data set: functional.
Data set [14] deals with Human immunodeficiency virus 2. The data set is described as follows: Anti-HIV activity against HIV2 ROD infected in human MT4 cells assessed as reduction in virus-induced cytopathic effect incubated for 5 days by MTT assay. The data set is classed as functional, organism-based. To be noted: Human immunodeficiency virus 2, ROD, MT4, 120 h.
Data set [15] is described as follows: Resistance fold, ratio of EC50 for HIV1 harboring reverse transcriptase K103N/Y181C double mutant […] to EC50 for wild type HIV1 […]. The data set is classed as functional.
The test system of data set [16] is Human immunodeficiency virus 1. The data set is described as follows: Antiviral activity against HIV1 harboring reverse transcriptase Y188L mutant infected in human MT4 cells assessed as protection against virus-induced cytopathic effect incubated for 5 days by MTT assay. The data set is classed as functional, organism-based. The following applies: Human immunodeficiency virus 1, MT4, 120 h.

Data set [17] concerns Human immunodeficiency virus 1. The experiment in a line: Antiviral activity against HIV1 harboring reverse transcriptase L100I mutant infected in human MT4 cells assessed as protection against virus-induced cytopathic effect incubated for 5 days by MTT assay. The data set is classed as functional, organism-based. To be noted: Human immunodeficiency virus 1, MT4, 120 h.
Data set [18] has as its target Human immunodeficiency virus type 1 reverse transcriptase (Human immunodeficiency virus 1, UniProt Q72547). The data set is described as follows: Inhibition of wild type HIV1 reverse transcriptase using oligo(dT)16 as primer measured after 40 mins by picogreen-dye based spectrofluorimetric analysis.
A short description of data set [19]: Resistance fold, ratio of EC50 for HIV1 harboring reverse transcriptase Y181C mutant […] to EC50 for wild type HIV1 […]. The data set is classed as functional.

The values below come from ChEMBL document CHEMBL5036347, “Design of the naphthyl-diarylpyrimidines as potent non-nucleoside reverse transcriptase inhibitors (NNRTIs) via structure-based extension into the entrance channel” (Eur J Med Chem, 2021).

The term CC50 denotes the concentration that lowers cell viability or growth by half. As usually defined, the EC50 is the concentration needed to bring the measured effect to its halfway point. For orientation: IC50 means the concentration needed to halve the response being measured.

Structures are written as SMILES.

For `CNc1cc(Oc2c(OC)cc3cc(C#N)ccc3c2OC)nc(Nc2ccc(C#N)cc2)n1`, the CC50 at 120 h in data set [1] is 239 µM. Also, the “Ratio EC50” value stood at 1 in data set [2]; 13 in data set [6]; 6 in data set [10]; 56 in data set [11]; 271 in data set [13]; 37 in [15]. The “Ratio EC50” value in data set [19] was found to be 8. Further, the EC50 in data set [3] amounted to 0.046 µM; in data set [4], 0.25 µM; in [5], 10.6 µM; in data set [8] it was 0.039 µM; in [9] it was 0.31 µM; in data set [12] it was 1.44 µM. For the same compound, the EC50 amounted to 52.1 µM in data set [14], 2.2 µM in [16] and 0.51 µM in data set [17]. The selectivity ratio in [7] was 4080. This compound yielded an IC50 in data set [18] of 0.24 µM.

For the compound `CCCCCNc1cc(Oc2c(OC)cc3cc(C#N)ccc3c2OC)nc(Nc2ccc(C#N)cc2)n1`, the CC50 at 120 h in data set [1] was above 125 µM. Also, the “Ratio EC50” value in [2] is 1; in data set [6], 33; in data set [10], 2; in data set [11] it was 1171; in data set [13], above 23095; in data set [15], 147. Moreover, the “Ratio EC50” value in [19] is reported as 12. The EC50 in [3] was 0.041 µM; in data set [4], 0.096 µM; in data set [5], above 1000 µM; in data set [8], 0.043 µM; in [9] it was 0.5 µM; in data set [12], 6.37 µM. In addition, the 50% effective concentration (EC50) in data set [14] is above 1000 µM; in data set [16] it was 50.7 µM; in data set [17] it was 1.43 µM. Besides, the selectivity ratio in data set [7] is above 5670. In data set [18], this compound yielded a concentration for half-maximal inhibition (IC50) of 0.02 µM.

Take `COc1cc2cc(C#N)ccc2c(OC)c1Oc1cc(NCC2CC2)nc(Nc2ccc(C#N)cc2)n1`: the CC50 at 120 h in [1] was above 125 µM. Besides, the “Ratio EC50” value in [2] came out at 1; in data set [6] it was 39; in data set [10], 5; in [11] it was 58; in [13], 3026; in data set [15] it was 56. The “Ratio EC50” value in data set [19] came to 9. Moreover, the EC50 was determined as 0.031 µM in data set [3]; 0.059 µM in data set [4]; 74.4 µM in [5]; 0.025 µM in data set [8]; 1.37 µM in data set [12]; 213 µM in data set [14]. Also, the EC50 amounted to 1.42 µM in data set [16] and 0.96 µM in data set [17]. In addition, in data set [7], the selectivity ratio is above 10500. Besides, the IC50 in data set [9] is 0.21 µM; in data set [18], 0.09 µM.

As to `COc1cc2cc(C#N)ccc2c(OC)c1Oc1cc(NCC(C)C)nc(Nc2ccc(C#N)cc2)n1`, the CC50 at 120 h in data set [1] was above 125 µM. For the same compound, the “Ratio EC50” value is recorded as 3 in data set [2]; 3646 in [6]; 4 in data set [10]; 383 in [11]; above 28736 in data set [13]; above 28736 in data set [15]. Further, the “Ratio EC50” value in data set [19] amounted to 1253. In addition, the EC50 is 0.11 µM in data set [3]; 0.13 µM in [4]; above 1000 µM in data set [5]; 0.035 µM in data set [8]; 43.6 µM in data set [9]; above 1000 µM in data set [12]. The EC50 in [14] is above 1000 µM; in [16], 13.3 µM; in data set [17], 127 µM. The selectivity ratio in [7] was above 7250. Further, in [18], the IC50 was 0.25 µM.

Turning to `CCCNc1cc(Oc2c(OC)cc3cc(C#N)ccc3c2OC)nc(Nc2ccc(C#N)cc2)n1`, the 50% cytotoxic concentration (CC50) at 120 h in [1] is above 125 µM. For the same compound, the “Ratio EC50” value in data set [2] is given as 1; in [6], 28; in data set [10], 3; in data set [11], 68; in data set [13] it was 3827; in data set [15] it was 75. Moreover, the “Ratio EC50” value in data set [19] worked out at 11. Moreover, the EC50 came out at 0.016 µM in data set [3]; 0.046 µM in data set [4]; 65.1 µM in data set [5]; 0.017 µM in [8]; 0.18 µM in data set [9]; 1.27 µM in data set [12]. The EC50 in [14] was above 1000 µM; in data set [16] it was 1.15 µM; in data set [17] it was 0.47 µM. The selectivity ratio in data set [7] is above 15700. In [18], this compound registered an IC50 of 0.11 µM.

Turning to `COc1cc2cc(C#N)ccc2c(OC)c1Oc1cc(NC2CCCCC2)nc(Nc2ccc(C#N)cc2)n1`, in data set [1], the CC50 at 120 h was above 125 µM. Moreover, the “Ratio EC50” value in data set [2] is given as 1; in data set [6] it was 379; in [10], 2; in data set [11] it was 479; in data set [13] it was above 9533; in [15], 933. In data set [19], the “Ratio EC50” value came out at 12. In addition, the EC50 in [3] is 0.13 µM; in data set [4], 0.57 µM; in [5] it was above 1000 µM; in [8] it was 0.1 µM; in data set [9], 1.27 µM; in data set [12], 97.9 µM. The EC50 was determined as 50.3 µM in [16] and 39.8 µM in data set [17]. For the same compound, in data set [7], the selectivity ratio is above 2290. Also, the IC50 was above 1000 µM in data set [14] and 0.44 µM in data set [18].

On to `CCCC(CCC)Nc1cc(Oc2c(OC)cc3cc(C#N)ccc3c2OC)nc(Nc2ccc(C#N)cc2)n1`, for which the cytotoxic concentration (CC50) at 120 h in data set [1] was above 125 µM. The “Ratio EC50” value in data set [2] is given as 1; in data set [6] it was 181; in [10], 2; in data set [11], above 1416; in data set [13] it was above 1416; in data set [15] it was above 1416. The “Ratio EC50” value in data set [19] was 37. Further, the EC50 was 0.36 µM in [3]; 1.59 µM in [4]; above 1000 µM in [5]; 0.71 µM in [8]; 26.4 µM in [9]; above 1000 µM in [12]. Moreover, the results for the EC50 in data set [14], in data set [16] and in [17] were above 1000 µM, above 1000 µM and 128 µM, respectively. For the same compound, the selectivity ratio in [7] was above 330. Besides, the IC50 in data set [18] was 0.61 µM.

Regarding `CCCC(C)Nc1cc(Oc2c(OC)cc3cc(C#N)ccc3c2OC)nc(Nc2ccc(C#N)cc2)n1` (configuration not stated), the CC50 at 120 h in data set [1] was above 125 µM. In addition, the “Ratio EC50” value is 1 in data set [2]; 28 in data set [6]; 3 in [10]; 139 in [11]; above 12771 in [13]; 112 in data set [15]. Further, in data set [19], the “Ratio EC50” value is given as 8. In addition, the EC50 in data set [3] is 0.064 µM; in data set [4], 0.25 µM; in data set [5] it was above 1000 µM; in data set [8], 0.078 µM; in data set [9], 0.66 µM; in data set [12] it was 8.77 µM. Further, the EC50 in [14] is above 1000 µM; in data set [16] it was 10.9 µM; in [17] it was 2.17 µM. Moreover, the selectivity ratio in [7] is above 3140. For the same compound, in [18], the midpoint of inhibition, the IC50, lay at 0.4 µM.
